Measured values: patent US9814696B2, “Use of coumarin derivatives for the preparation of drugs for treating skin diseases” (UNIVERSITE PIERRE ET MARIE CURIE (PARIS 6), priority 2011, dated 2017)

Key:
Format in all cases: biochemical
KLK14 = target: T1, KLK14 (Homo sapiens, UniProt Q9P0G3); test: KLK14 enzyme inhibition assay, fluorogenic substrate Boc-Val-Pro-Arg-AMC; conditions: for inhibition at 50 µM / inhibition at 100 µM / IC50: 37° C., 15 min of incubation, pH 8; for selective activity against enzyme: KLK14: Table B, among KLK5, KLK7 and KLK14; for IC50: Table A, read-out: IC50 (μM) KLK14
T1 sequence (Q9P0G3 25-251): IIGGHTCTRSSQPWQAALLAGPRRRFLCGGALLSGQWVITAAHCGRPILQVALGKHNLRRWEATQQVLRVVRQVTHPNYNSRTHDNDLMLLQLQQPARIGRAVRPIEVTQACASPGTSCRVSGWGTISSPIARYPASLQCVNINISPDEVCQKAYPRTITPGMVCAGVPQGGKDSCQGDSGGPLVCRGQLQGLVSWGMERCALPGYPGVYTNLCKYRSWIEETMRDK
Protocol: (§1) Kallikreins KLK5, KLK7 and KLK14 activities were determined by monitoring the hydrolysis of the appropriate fluorogenic substrate (λexc=355, λem=460 nm) for 15 min at 37° C. in the presence of the untreated kallikrein (control) or kallikrein that had been incubated with a test compound. Substrate and compounds were previously dissolved in DMSO, with the final solvent concentration kept constant at 2% (v/v) (KLK 5 and 14), and 4% (v/v) (KLK7). The composition of the activity buffers (pH 8.0) was 100 mM Tris-HCl, 150 mM NaCl, 0.01% (v/v) Tween 20 for the KLK5 assay, and 100 mM Tris-HCl, 1M NaCl, 0.01% (v/v) Tween 20 in the KLK 7 and 14 assays. The final concentrations were 0.6 nM (KLK5) and 100 μM (Boc-Val-Pro-Arg-AMC) (KLK5 assay), 8 nM (KLK7) and 40 μM (Suc-Leu-Leu-Val-Tyr-AMC, AMC: 7-amino-4-methyl-coumarin) (KLK7 assay), and 0.17 nM (KLK14) and 10 μM (Boc-Val-Pro-Arg-AMC) (KLK14 assay). Using the appropriate substrate, the coumarinic compounds (0.01-100 μM) were tested in duplicate for each inhibitor concentration to detect their inhibitory potential. The enzyme and the inhibitors were incubated for 15 min before the determination of the enzyme activity. Initial rates determined in control experiments (V0) were considered to be 100% of the peptidase activity; initial rates below 100% were considered to be inhibitions. The inhibitory activity of compounds was expressed as IC50 (inhibitor concentrations giving 50% inhibition). The values of IC50 were calculated by fitting the experimental data to the equation: % Inhibition=100×(1−Vi/V0)=100[I]0/(IC50+[I]0), or equation: % Inhibition=100[I]0^nH/(IC50^nH+[I]0^nH),nH is the Hill number.
(§2) The tests were realized at 37° C. after 15 min of incubation at pH 8.

KLK7 = KLK7 (Homo sapiens, UniProt P49862); test: KLK7 enzyme inhibition assay, fluorogenic substrate Suc-Leu-Leu-Val-Tyr-AMC; conditions: for IC50: Table A, read-out: IC50 (μM) KLK7; for selective activity against enzyme: KLK7: Table B, among KLK5, KLK7 and KLK14
Protocol: as §1, §2

KLK5 = target: T2, KLK5 (Homo sapiens, UniProt Q9Y337); test: KLK5 enzyme inhibition assay, fluorogenic substrate Boc-Val-Pro-Arg-AMC; conditions: for inhibition at 100 µM / IC50 / inhibition at 50 µM: 37° C., 15 min of incubation, pH 8; for IC50: Table A, read-out: IC50 (μM) KLK5; for selective activity against enzyme: KLK5: Table B, among KLK5, KLK7 and KLK14
T2 sequence (Q9Y337 23-293): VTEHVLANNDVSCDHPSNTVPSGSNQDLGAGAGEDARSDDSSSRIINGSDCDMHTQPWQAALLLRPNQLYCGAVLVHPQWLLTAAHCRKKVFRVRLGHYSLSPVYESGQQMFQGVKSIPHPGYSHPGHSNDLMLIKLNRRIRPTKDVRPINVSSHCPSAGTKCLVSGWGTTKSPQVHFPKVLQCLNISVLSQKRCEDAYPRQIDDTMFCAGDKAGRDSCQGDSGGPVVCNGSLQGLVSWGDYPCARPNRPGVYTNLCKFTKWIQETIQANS
Protocol: as §1, §2

[1] = 37° C., 15 min of incubation, pH 8

KLK7, sequence (P49862 30-253): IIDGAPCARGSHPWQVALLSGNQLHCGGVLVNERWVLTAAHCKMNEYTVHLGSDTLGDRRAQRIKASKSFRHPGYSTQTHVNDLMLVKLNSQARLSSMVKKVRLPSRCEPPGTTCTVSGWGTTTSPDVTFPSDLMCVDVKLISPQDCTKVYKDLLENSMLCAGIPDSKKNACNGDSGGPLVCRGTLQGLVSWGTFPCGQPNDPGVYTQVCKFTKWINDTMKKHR

Question: Which results are given for `CC(=O)OCc1ccc2oc(=O)c(C(=O)Oc3cc(Cl)ccc3Cl)cc2c1` [CFL4]?
Answer: inhibition at 50 µM (KLK14): 60%; IC50 (KLK7; [1]): 5.01 ± 0.4 µM

Question: Which inhibition at 100 µM (KLK14) does the source give for `O=C(Oc1cc(F)ccc1F)c1cc2ccccc2oc1=O` [CFL7] here?
Answer: The inhibition at 100 µM was 33%.

Question: What about the inhibition at 100 µM (KLK7; [1]) of the same compound?
Answer: The inhibition at 100 µM was 33%.

Question: Which results are given for `O=C(Oc1cc(F)ccc1Br)c1cc2cc(CCl)ccc2oc1=O` [CFL15]?
Answer: inhibition at 100 µM (KLK5): 47%; inhibition at 100 µM (KLK14): 45%; IC50 (KLK7; [1]): 0.352 ± 0.055 µM; selective activity against enzyme: KLK7 (KLK7): KLK7

Question: Which results are given for `O=C(Oc1cc(F)ccc1[N+](=O)[O-])c1cc2cc(CCl)ccc2oc1=O` [CFL16]?
Answer: inhibition at 100 µM (KLK5): 40%; inhibition at 100 µM (KLK14): 73%; IC50 (KLK7; [1]): 0.9 ± 0.4 µM

Question: What does the source list for `CC(=O)OCc1ccc2oc(=O)c(C(=O)Oc3cc(F)ccc3Br)cc2c1` [CFL17]?
Answer: inhibition at 50 µM (KLK14): 50%; selective activity against enzyme: KLK14 (KLK14): KLK14; inhibition at 100 µM (KLK7; [1]): 33%

Question: What does the source list for `O=C(Oc1cc([N+](=O)[O-])ccc1[N+](=O)[O-])c1cc2cc(CCl)ccc2oc1=O` [CFL21]?
Answer: IC50 (KLK5): 121 µM; inhibition at 100 µM (KLK14): 43%; selective activity against enzyme: KLK14 (KLK14): KLK14; inhibition at 100 µM (KLK7; [1]): 22%

Question: With `Cc1ccc2oc(=O)c(C(=O)Oc3cc(F)ccc3[N+](=O)[O-])cc2c1` [CFL25] as the compound, how does the IC50 (KLK5) read?
Answer: The IC50 was 44 ± 10 µM.

Question: What about the IC50 (KLK14) of the same compound?
Answer: The IC50 was 68 ± 9 µM.

Question: Which results are given for `CCOC(=O)c1cc2cc(C)ccc2oc1=O` [Compound D5]?
Answer: inhibition at 100 µM (KLK5): 90%; inhibition at 100 µM (KLK14): 38%; inhibition at 100 µM (KLK7; [1]): 61%

Question: With `CC(=O)c1cc2cc(C)ccc2oc1=O` [Compound D9] as the compound, how does the inhibition at 100 µM (KLK5) read?
Answer: The inhibition at 100 µM was 80%.

Question: What about the “selective activity against enzyme: KLK5” value (KLK5) of the same compound?
Answer: Its value is “KLK5”.

Question: What about the inhibition at 100 µM (KLK14) of the same compound?
Answer: Its inhibition at 100 µM is 40%.

Question: `COC(=O)c1ccccc1OC(=O)c1cc2cc(CCl)ccc2oc1=O` [IK1] was tested. Which IC50 (KLK5) did it give?
Answer: The IC50 was 26.3 ± 1.4 µM.

Question: What about the IC50 (KLK14) of the same compound?
Answer: The IC50 was 38 ± 5 µM.

Question: What about the IC50 (KLK7; [1]) of the same compound?
Answer: Its IC50 is 2.7 ± 0.1 µM.

Question: How did the IC50 (KLK5) turn out when `O=C(O)c1ccc(Cl)cc1OC(=O)c1cc2cc(CCl)ccc2oc1=O` [IK5] was run?
Answer: Its IC50 is 36.9 ± 4.2 µM.

Question: And the IC50 (KLK14)?
Answer: The IC50 was 89 ± 10 µM.

Question: And the IC50 (KLK7; [1])?
Answer: The IC50 was 5.8 ± 0.2 µM.

Question: Which IC50 (KLK5) does the source give for `COC(=O)c1ccccc1OC(=O)c1cc2cc(COC(C)=O)ccc2oc1=O` [IK8] here?
Answer: Its IC50 is ~40 µM.

Question: What about the inhibition at 100 µM (KLK14) of the same compound?
Answer: The inhibition at 100 µM was 64%.

Question: What about the IC50 (KLK7; [1]) of the same compound?
Answer: Its IC50 is 64.3 ± 2.7 µM.

Question: Which inhibition at 50 µM (KLK5) does the source give for `CC(=O)OCc1ccc2oc(=O)c(C(=O)Oc3cccc(Br)c3)cc2c1` [IK9] here?
Answer: Its inhibition at 50 µM is 22%.

Question: What about the “selective activity against enzyme: KLK5” value (KLK5) of the same compound?
Answer: Its value is “KLK5”.

Question: How did the inhibition at 50 µM (KLK5) turn out when `CC(=O)OCc1ccc2oc(=O)c(C(=O)Oc3cccc(F)c3)cc2c1` [IK10] was run?
Answer: The inhibition at 50 µM was 23%.

Question: And the “selective activity against enzyme: KLK5” value (KLK5)?
Answer: Its value is “KLK5”.

Question: `O=C(O)c1ccccc1OC(=O)c1cc2cc(CCl)ccc2oc1=O` [IK11] was tested. Which inhibition at 50 µM (KLK5) did it give?
Answer: The inhibition at 50 µM was 37.4%.

Question: And the IC50 (KLK14)?
Answer: The IC50 was 43 ± 4 µM.

Question: And the inhibition at 100 µM (KLK7; [1])?
Answer: Its inhibition at 100 µM is 63%.

Question: How did the inhibition at 100 µM (KLK14) turn out when `COC(=O)c1ccc(OC(=O)c2cc3cc(CCl)ccc3oc2=O)cc1` [IK13] was run?
Answer: Its inhibition at 100 µM is 72%.

Question: What about the “selective activity against enzyme: KLK14” value (KLK14) of the same compound?
Answer: Its value is “KLK14”.

Question: What about the inhibition at 100 µM (KLK7; [1]) of the same compound?
Answer: The inhibition at 100 µM was 34%.

Question: Which results are given for `NCc1ccc2oc(=O)c(C(=O)Oc3cccc(Br)c3)cc2c1` [IK48]?
Answer: inhibition at 50 µM (KLK5): 27%; inhibition at 50 µM (KLK14): 32%; IC50 (KLK7; [1]): 9.7 ± 1.3 µM

Question: `CC(=O)NCc1ccc2oc(=O)c(C(=O)Oc3cccc(Br)c3)cc2c1` [IK49] was tested. Which inhibition at 10 µM (KLK7; [1]) did it give?
Answer: Its inhibition at 10 µM is 54%.

Question: And the “selective activity against enzyme: KLK7” value (KLK7)?
Answer: Its value is “KLK7”.

Question: `CC(=O)NCc1ccc2oc(=O)c(C(=O)Oc3cccc(Cl)c3)cc2c1` [IK53] was tested. Which inhibition at 10 µM (KLK7; [1]) did it give?
Answer: The inhibition at 10 µM was 54%.

Question: What about the “selective activity against enzyme: KLK7” value (KLK7) of the same compound?
Answer: The value was “KLK7”.

Question: Which IC50 (KLK7; [1]) does the source give for `O=C(Oc1cncc(Cl)c1)c1cc2cc(CCl)ccc2oc1=O` [LP2] here?
Answer: Its IC50 is 0.128 ± 0.03 µM.

Question: And the “selective activity against enzyme: KLK7” value (KLK7)?
Answer: Its value is “KLK7”.

Question: What does the source list for `O=C(Oc1cccc(Cl)c1)c1cc2cc(CCl)ccc2oc1=O` [LP8]?
Answer: inhibition at 100 µM (KLK5): 49%; inhibition at 100 µM (KLK14): 40%; IC50 (KLK7; [1]): 0.103 ± 0.005 µM; selective activity against enzyme: KLK7 (KLK7): KLK7

Question: Which results are given for `O=C(Oc1ccccc1I)c1cc2cc(CCl)ccc2oc1=O` [LP15]?
Answer: inhibition at 100 µM (KLK14): 35%; IC50 (KLK7; [1]): 1.9 ± 0.1 µM

Question: How did the inhibition at 50 µM (KLK7; 50 μM, 37° C., 15 min of incubation, pH 8) turn out when `O=C(Oc1ccc(I)cc1)c1cc2cc(CCl)ccc2oc1=O` [LP16] was run?
Answer: The inhibition at 50 µM was 47%.
